The source of these data is patent publication US20150011751A1, “NOVEL TRIAZINE DERIVATIVE” (CARNA BIOSCIENCES, INC., priority 2012, published 2015).

In the test the target is Dephosphorylated BTK (Homo sapiens, UniProt Q06187). The experiment in a line: Test of activity inhibition against dephosphorylated BTK (mobility shift assay).
Dephosphorylated BTK, sequence (Q06187 whole entry): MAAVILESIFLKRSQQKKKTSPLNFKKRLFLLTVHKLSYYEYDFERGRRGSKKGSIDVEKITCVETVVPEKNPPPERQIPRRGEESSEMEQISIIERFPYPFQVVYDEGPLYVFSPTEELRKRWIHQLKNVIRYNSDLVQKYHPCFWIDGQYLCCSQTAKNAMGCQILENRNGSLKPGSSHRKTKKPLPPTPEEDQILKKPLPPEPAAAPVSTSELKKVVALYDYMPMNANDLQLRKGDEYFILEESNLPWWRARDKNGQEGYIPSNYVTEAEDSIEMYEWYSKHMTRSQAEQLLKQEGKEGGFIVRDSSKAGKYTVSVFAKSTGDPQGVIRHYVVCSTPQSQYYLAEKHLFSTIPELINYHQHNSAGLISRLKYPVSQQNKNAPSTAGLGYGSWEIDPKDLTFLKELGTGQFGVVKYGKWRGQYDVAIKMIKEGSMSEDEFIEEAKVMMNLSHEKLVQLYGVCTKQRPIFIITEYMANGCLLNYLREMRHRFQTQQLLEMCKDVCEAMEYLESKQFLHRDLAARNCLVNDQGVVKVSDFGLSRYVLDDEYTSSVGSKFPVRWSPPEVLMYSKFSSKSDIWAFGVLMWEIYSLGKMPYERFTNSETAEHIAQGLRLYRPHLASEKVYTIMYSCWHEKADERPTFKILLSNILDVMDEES

For `Nc1nc(Nc2ccc(N3CCOCC3)cc2)nc(-c2cccc(NC(=O)c3ccc(C4CC4)cc3F)c2CO)n1` [Example 145, N-(3-{4-Amino-6-[(4-morpholinophenyl)amino]-1,3,5-triazin-2-yl}-2-(hydroxymethyl)phe-nyl)-4-cyclopropyl-2-fluorobenzamide], the IC50 stood at 1.8 nM.
To `COCCn1cc(Nc2nc(N)nc(-c3cccc(N4CCc5cc(C6CC6)cc(F)c5C4=O)c3CO)n2)cn1` [Example 212, 2-[3-(4-Amino-6-{[1-(2-methoxyethyl)-1H-py-razol-4-yl]amino}-1,3,5-triazin-2-yl)-2-(hy-droxymethyl)phenyl]-6-cyclopropyl-8-fluoro-3,4-dihydroisoquinolin-1(2H)-one] belongs 0.9 nM; to `Nc1nc(Nc2cnn(CCCO)c2)nc(-c2cccc(N3CCc4cc(C5CC5)cc(F)c4C3=O)c2CO)n1` [Example 225, 2-[3-(4-Amino-6-{[1-(3-hydroxypropyl)-1H-py-razol-4-yl]amino}-1,3,5-triazin-2-yl)-2-(hy-droxymethyl)phenyl]-6-cyclopropyl-8-fluoro-3,4-dihydro-isoquinolin-1(2H)-one], 1.2 nM; to `Nc1nc(Nc2ccc(N3CCNCC3)cc2)nc(-c2cccc(N3CCc4cc(C5CC5)cc(F)c4C3=O)c2CO)n1` [Example 191, 2-[3-(4-Amino-6-{[4-(pipe-razin-1-yl)phenyl]amino}-1,3,5-triazin-2-yl)-2-(hydroxymeth-yl)phenyl]-6-cyclopro-pyl-8-fluoro-3,4-dihy-droisoquinolin-1(2H)-one], 1 nM.
Consider `CC(C)(C)c1ccc(C(=O)Nc2cccc(-c3nc(N)nc(Nc4ccc(O)c(F)c4)n3)c2CO)cc1` [Example 113, N-(3-{4-Amino-6-[(3-fluoro-4-hydroxyphenyl)amino]-1,3,5-triazin-2-yl}-2-(hydroxymeth-yl)phenyl)-4-(tert-butyl)benzamide], for which the IC50 was 2.6 nM.
To `CN(C)CCCOc1ccc(Nc2nc(N)nc(-c3cccc(NC(=O)c4cc5c(s4)CCCC5)c3CO)n2)cc1` [Example 135, N-{3-[4-Amino-6-({4-[3-(dimethylamino)prop-oxy]phenyl}amino)-1,3,5-triazin-2-yl]-2-(hy-droxymethyl)phenyl}-4,5,6,7-tetrahydro-benzo[b]thiophene-2-carboxamide] belongs 1.3 nM; to `CN(C)CCOc1ccc(Nc2nc(N)nc(-c3cccc(NC(=O)c4ccc(C(C)(C)C)cc4)c3CO)n2)cc1` [Example 166, N-{3-[4-Amino-6-({4-[2-(dimethylamino)eth-oxy]phenyl}amino)-1,3,5-triazin-2-yl]-2-(hy-droxymethyl)phenyl}-4-(tert-butyl)benzamide], 1 nM.
Take `NC(=O)c1cc(Nc2nc(N)nc(-c3cccc(N4CCc5cc(C6CC6)cc(F)c5C4=O)c3CO)n2)c[nH]1` [Example 255, 4-({4-Amino-6-[3-(6-cyclo-propyl-8-fluoro-1-oxo-3,4-dihydroisoquino-lin-2(1H)-yl)-2-(hydroxy-methyl)phenyl]-1,3,5-triazin-2-yl}ami-no)-1H-pyrrole-2-carboxamide]: the IC50 is 0.5 nM.
Take `Nc1nc(Nc2cnn(CCN3CCOCC3)c2)nc(-c2cccc(N3CCc4cc(C5CC5)cc(F)c4C3=O)c2CO)n1` [Example 237, 2-[3-(4-Amino-6-{[1-(2-morpholinoethyl)-1H-pyrazol-4-yl]amino}-1,3,5-triazin-2-yl)-2-(hydroxymethyl)phenyl]-6-cyclopropyl-8-fluoro-3,4-dihydro-isoquinolin-1(2H)-one]: the IC50 amounted to 0.8 nM.
With `CC(C)(O)c1ccc(C(=O)Nc2cccc(-c3nc(N)nc(Nc4ccc(N5CCOCC5)cc4)n3)c2CO)cc1` [Example 208, N-(3-{4-Amino-6-[(4-morpholinophenyl)amino]-1,3,5-triazin-2-yl}-2-(hydroxymethyl)phe-nyl)-4-(2-hydroxy-propan-2-yl)benzamide] the figure was 5.9 nM; with `COCCN(CCOC)Cc1ccc(Nc2nc(N)nc(-c3cccc(NC(=O)c4cc5c(s4)CCCC5)c3CO)n2)cc1` [Example 129, N-(3-{4-Amino-6-[(4-{[bis (2-methoxyethyl)a-mino]methyl}phenyl)ami-no]-1,3,5-triazin-2-yl}-2-(hydroxymethyl)phenyl)-4,5,6,7-tetra-hydrobenzo[b]thiophene-2-carboxamide], 0.6 nM.
For `CC(C)(C)c1ccc(C(=O)Nc2cccc(-c3nc(N)nc(Nc4ccc5[nH]ncc5c4)n3)c2CO)cc1` [Example 140, N-(3-{4-[(1H-Indazol-5-yl)amino]-6-amino-1,3,5-triazin-2-yl}-2-(hydroxymethyl)phenyl)-4-(tert-butyl)benzamide], the IC50 was 1.7 nM.
Regarding `CC(=O)N1CCN(c2ccc(Nc3nc(N)nc(-c4cccc(N5CCc6cc(C7CC7)cc(F)c6C5=O)c4CO)n3)cc2)CC1` [Example 220, 2-[3-(4-{[4-(4-Acetyl-piperazin-1-yl)phenyl]amino}-6-amino-1,3,5-triazin-2-yl)-2-(hy-droxymethyl)phenyl]-6-cyclopropyl-8-fluoro-3,4-dihydroisoquinolin-1(2H)-one], the IC50 stood at 2.3 nM.
Take `CC(C)(C)c1ccc(C(=O)Nc2cccc(-c3nc(N)nc(Nc4ccc(CO)cc4)n3)c2CO)cc1` [Example 111, N-[3-(4-Amino-6-{[4-(hydroxymethyl)phenyl]amino}-1,3,5-triazin-2-yl)-2-(hydroxymeth-yl)phenyl]-4-(tert-butyl) benzamide]: the IC50 was 1 nM.
In the case of `Nc1nc(Nc2ccc(Cn3cncn3)cc2)nc(-c2cccc(N3CCc4cc(C5CC5)cc(F)c4C3=O)c2CO)n1` [Example 49, 2-{3-[4-({4-[(1H-1,2,4-Triazol-1-yl)methyl]phenyl}amino)-6-amino-1,3,5-triazin-2-yl]-2-(hydroxymethyl)phe-nyl}-6-cyclopropyl-8-fluoro-3,4-dihydroiso-quinolin-1(2H)-one], the IC50 amounted to 1.1 nM.
Turning to `CCC(C)n1cc(Nc2nc(N)nc(-c3cccc(N4CCc5cc(C6CC6)cc(F)c5C4=O)c3CO)n2)cn1` (stereo not shown) [Example 271, 2-[3-(4-Amino-6-{[1-(sec-butyl)-1H-pyrazol-4-yl]amino}-1,3,5-tri-azin-2-yl)-2-(hydroxy-methyl)phenyl]-6-cyclo-propyl-8-fluoro-3,4-dihydroisoquinolin-1 (2H)-one], the IC50 was 0.4 nM.
As to `Nc1nc(Nc2cn[nH]c2)nc(-c2cccc(N3CCc4cc(C5CC5)cc(F)c4C3=O)c2CO)n1` [Example 195, 2-(3-{4-[(1H-Pyrazol-4-yl)amino]-6-amino-1,3,5-triazin-2-yl}-2-(hydroxymethyl)phenyl)-6-cyclopropyl-8-fluoro-3,4-dihydro-isoquinolin-1(2H)-one], the IC50 was 0.8 nM.
Consider `CC(C)(C)c1ccc(C(=O)Nc2cccc(-c3nc(N)nc(Nc4ccc(N5CCOC5=O)cc4)n3)c2CO)cc1` [Example 156, N-[3-(4-Amino-6-{[4-(2-oxooxazolidin-3-yl)phenyl]amino}-1,3,5-tri-azin-2-yl)-2-(hydroxy-methyl)phenyl]-4-(tert-butyl)benzamide], for which the IC50 is 0.5 nM.
`Nc1nc(Nc2ccc(O)cc2)nc(-c2cccc(N3CCc4cc(C5CC5)cc(F)c4C3=O)c2CO)n1` [Example 182, 2-(3-{4-Amino-6-[(4-hy-droxyphenyl)amino]-1,3,5-triazin-2-yl}-2-(hydroxymethyl)phenyl)-6-cyclopropyl-8-fluoro-3,4-dihydro-isoquinolin-1(2H)-one]: the IC50 was found to be 3.6 nM.

For orientation: IC50 means the midpoint of a concentration-inhibition curve.
